# Measurements published in PMC10057445, “Interactions of N-Mannich Bases of Pyrrolo[3,4-c]pyrrole with Artificial Models of Cell Membranes and Plasma Proteins, Evaluation of Anti-Inflammatory and Antioxidant Activity” (Membranes, 2023).
# Target: T1, human serum albumin (HSA) (Homo sapiens, UniProt P02768)
# T1 construct: gene ALB; commercial powder (Sigma Aldrich), mature plasma protein
# Assay: intrinsic fluorescence quenching, ex […] nm
# Format: binding
# Details: double-log; 297 K, pH 7.4 phosphate, no site marker
# T1 sequence (P02768 25-609): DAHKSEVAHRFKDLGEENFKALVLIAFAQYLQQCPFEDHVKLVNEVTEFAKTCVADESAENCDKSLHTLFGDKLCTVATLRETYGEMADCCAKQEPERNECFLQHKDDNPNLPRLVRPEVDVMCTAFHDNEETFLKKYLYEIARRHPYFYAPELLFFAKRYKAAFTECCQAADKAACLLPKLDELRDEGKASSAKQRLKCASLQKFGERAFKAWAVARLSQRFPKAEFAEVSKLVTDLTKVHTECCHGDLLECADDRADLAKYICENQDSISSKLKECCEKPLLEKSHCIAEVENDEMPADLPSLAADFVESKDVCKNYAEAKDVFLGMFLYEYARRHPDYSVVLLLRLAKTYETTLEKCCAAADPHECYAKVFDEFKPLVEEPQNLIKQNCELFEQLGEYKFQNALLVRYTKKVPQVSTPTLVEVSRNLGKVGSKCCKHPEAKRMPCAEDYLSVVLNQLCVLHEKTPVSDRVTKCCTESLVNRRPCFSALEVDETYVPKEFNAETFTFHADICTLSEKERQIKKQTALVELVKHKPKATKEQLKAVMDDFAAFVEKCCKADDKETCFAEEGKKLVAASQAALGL
row,SMILES,Binding / Kb × 10^3 [dm^3.mol^-1]
1,Cc1c2c(c(C)n1-c1ccccc1)C(=O)N(CN1CCN(S(C)(=O)=O)CC1)C2=O [7l],1.66 × 10^3 dm^3·mol^-1
2,Cc1c2c(c(C)n1-c1ccccc1)C(=O)N(CN1CCN(c3ccccc3)CC1)C2=O [7a],9.12 × 10^3 dm^3·mol^-1
